Data on 1 compound can be found in patent US20080076827A1, “Treatment of Inflammatory Bowel Disease” (priority 2004, published 2008).

Test [1] relates to dextran sulphate-induced colonic inflammation. Put plainly: Dextran sulphate-induced IBD model. It counts as in vivo, BDF1 male mice. The following applies: rectal route twice a day for 5 days. The protocol:
8-10 week-old BDF1 male mice (˜30 g) were housed in normal conditions. At the start of the study, normal water was exchanged for a 2.5% dextran sulphate solution to induce colonic inflammation. Concurrently actarit and the positive control budesonide were administered rectally twice a day for 5 days. On day 6 the animals were sacrificed and the large intestine was removed. The lower two-thirds were assessed for histological severity (scoring system; 1 mild to 4 severe).

The subject of a further test is TNFα. Put plainly: LPS-induced TNF alpha release in mice. The following applies: oral route, 30 min before 1 mg/kg i.p. LPS; serum 2 hours after LPS; ELISA. It counts as in vivo, Balb C ByJ mice. As for the experimental part:
7 week-old Balb C ByJ mice (24-28 g) were administered, either by i.p. (5 ml/kg) or oral (10 ml/kg) administration, with vehicle or test article. 30 minutes later these animals were challenged with an intraperitoneal injection of 1 mg/kg LPS. 2 hours after LPS challenge, blood samples were collected under light isoflurane anaesthesia into normal tubes by retro-orbital puncture. Samples were allowed to clot at room temperature and then spun at 6000 g for 3 min at 4° C. Serum was stored at −20° C. until use. Serum TNFα and IL-10 levels were analysed in duplicate by ELISA technique.
A general note: An ELISA detects its analyte on a solid surface through an enzyme-linked reagent.

Turning to `CC(=O)Nc1ccc(CC(=O)O)cc1` [actarit, 4-(acetylamino)benzeneacetic acid], the “pathological and histological lesions” value in test [1] (2.5% dextran sulphate in drinking water, large intestine assessed day 6) is “can ameliorate pathological and histological lesions”. Also, in test [1] (2.5% dextran sulphate, compared with 0.1 mg/kg rectal budesonide), the “gross histological scores (scoring system; 1 mild to 4 severe)” value was “reduced gross histological scores induced by dextran sulphate in the drinking water of BDF1 mice, over and above the effect seen for 0.1 mg/kg rectal budesonide”. For the same compound, in the test with TNFα, the “inhibition of serum TNFalpha levels after intraperitoneal LPS administration” value was “dose-dependant inihibition of TNFalpha levels”.
